Patent publication US20220023273A1, “METHODS FOR TREATING SYMPTOMS AND DISORDERS ASSOCIATED WITH LYSOSOMAL STORAGE DISEASES” (GENZYME CORPORATION, priority 2019, published 2022)
Like-named read-outs stand apart in the source and are kept apart here.

Assays:
Assay type in all cases: in vivo, human
[1] = GD3 clinical study: pharmacokinetics in plasma and CSF; settings: for AUC: human, plasma, po, Day 1 (N = 5), read-out: AUC0_24 (mean ± SD)
Excerpt: Patients 18 years of age or older with a clinical diagnosis of GD3 and documented deficiency of acid beta-glucosidase activity having received treatment with ERT for at least 3 years and with imiglucerase (Cerezyme) at a stable monthly dose for at least 6 months prior to enrollment were included in the study. Patients must have reached the following GD therapeutic goals: hemoglobin level of ≥11.0 g/dL for females and ≥12.0 g/dL for males; platelet count ≥100 000/mm3; spleen volume <10 multiples of normal (MN), or total splenectomy (provided the splenectomy occurred >3 years prior to randomization); liver volume <1.5 MN; and no bone crisis and free of symptomatic bone disease such as bone pain attributable to osteonecrosis and/or pathological fractures within the last year. Patients must have GD3 featuring oculomotor apraxia (supranuclear gaze palsy) characterized by a horizontal saccade abnormality.
(§1) During the study patients were evaluated for safety and tolerability, CSF and plasma biomarkers (glucosylceramide, GL-1; glucosylsphingosine, lyso-GL1), pharmacokinetics, markers for systemic disease (spleen and liver volume measured by magnetic resonance imaging (MRI), platelet count, hemoglobin levels), indicia of interstitial lung disease (high resolution pulmonary computed tomography (CT)), and horizontal saccadic eye movement.
A second interim analysis was performed when the first 6 patients had reached 52-weeks of treatment, as described above in section (A). This analysis included Patients 1-5 as described in section (A), as well as new Patient 6. All six patients had L444P (1448T/C) homozygous Gaucher phenotype.

[2] = tested on: adult patients with Gaucher disease Type 3; experiment: GD3 clinical study: resting-state fMRI connectivity; settings: Patient 5 likely non-compliant, GD3, 15 mg/day oral + imiglucerase
Procedure: Neurological function—was further evaluated using functional magnetic resonance imaging (fMRI). Patient 2 was excluded because no fMRI data was collected at the Week 52 session. Resting-state fMRI screening sessions were performed at baseline screening, Week 26, and Week 52 visits. Connectivity estimates from four subjects (Patients 1, 3, 4 and 5) were entered into second-level analyses as a “compliant” group. Patient 5 was isolated due to likely non-compliance with study medication, as described above. Analyses were performed as described elsewhere (Smith et al. [2009]).
Spatial analysis of the connectivity between different anatomic regions of the brain is performed to define a correlation coefficient for regressed voxelwise mean intensity.

plasma GL-3 = experiment: Fabry: matched comparison with historical phase 3 trial of agalsidase beta; settings: Fabry males, 15 mg/day oral
Excerpt: Mean ages were similar across the three groups.

[3] = tested on: adult patients with Gaucher disease Type 3; experiment: GD3 clinical study: interstitial lung disease by high-resolution CT; settings: after 26 weeks; GD3, 15 mg/day oral + imiglucerase
Procedure: as §1
Severity of interstitial lung disease was characterized by the percent of lung volume affect by ILD as measured by high-resolution CT in four lung regions (aortic arch, carina, lower zone L3, lower zone L4). Patients were rated as having severe ILD (51-100% of lung volume affected), moderate ILD (26-50% of lung volume affected), mild ILD (1-25% of lung volume affected) or normal (0% of lung volume showing ILD).

[4] = tested on: chitotriosidase (CHITO), GM3, GPNMB, ceramide; experiment: GD3 clinical study: exploratory biomarkers; settings: GD3, 15 mg/day oral + imiglucerase
Procedure: Four exploratory biomarkers were quantified in plasma, serum and/or CSF of GD3 patients at week 4 and week 26: chitotriosidase (CHITO; an enzyme known to be elevated in GD patients) was measured in CSF and serum; GM3 (a glycosphingolipid marker known to be elevated in GD patients) was measured in CSF and plasma; and glycoprotein nonmetastatic melanoma protein B (GPNMB; reportedly a biomarker of neuropathic GD3) was measured in CSF. The results are shown in the table below as percent change from baseline at week 4 and week 26 for each parameter:
In addition, exploratory biomarkers were quantified in CSF of GD3 patients: ceramide (the precursor of GL-1), chitotriosidase (CHITO), GM3, and GPNMB.

[5] = tested on: plasma GL-1, GL-3, and GM3; experiment: Phase 1 Study 2: pharmacodynamics
Procedure: The study enrolled and randomized 36 healthy adults (19 men and 17 women) (n=9 each to group).
Pharmacodynamic endpoints (plasma GL-1, GL-3, and GM3 concentrations) were assessed on Days 1-5, 8, 11, 13, and 14, at 0 hours […]; and on Day 15, at 24 hours after the Day 14 dose.

[6] = tested on: adult male Fabry patients; experiment: Fabry clinical study: SF-36 bodily pain and abdominal pain assessment; settings: Fabry males; for patients with decreased severity of abdominal pain / patients with improved overall bodily pain scores (SF-36) / patients with reduced number of days with gastrointestinal pain: 15 mg/day oral
Excerpt: Each sample was scored independently by 3 pathologists for the presence of GL-3 inclusions on a four-point scale, and rated as 0 (no/trace), 1 (mild), 2 (moderate), or 3 (severe) according to Eng et al., N. Engl. J. Med. 345:9-16 (2001). A single score per patient per time point was derived by taking the score rated by the majority of the three pathologists. If a majority score could not be derived, then the median score was used (resulting in some fractional scores). Plasma samples were also analyzed for GL-3, lyso-GL-3, GL-1 and GM3 at baseline and weeks 12, 26, 52 and 156. Pain scores and abdominal symptoms were analyzed at baseline and weeks 12, 26, 52, 104 and 156 using the SF-36 scoring protocol.
Patients were assessed using the Short Form-36 (SF-36) questionnaire on numerous visits from baseline to week 156. This is a 36-item questionnaire used to measure 8 various aspects of health (vitality, physical functioning, bodily pain, general health perceptions, physical role functioning, emotional role functioning, social role functioning and mental health). The score for each of the eight aspects ranges from 0 (maximum disability) to 100 (no disability), and thus, higher scores indicate good health condition. In addition, gastrointestinal symptoms, including abdominal pain, abdominal distention, and bowl movements, were assessed using a modified version of the inflammatory bowel severity scoring system. Particular questions asked as part of these assessments included: (1) whether the patient suffered abdominal pain within the last ten days, (2) what was the severity of abdominal pain suffered in the last ten days using a 0 (no pain) to 100 (very severe pain) scale, and (3) on how many days within the last ten days did the patient have abdominal pain.

## CC(C)(NC(=O)O[C@@H]1CN2CCC1CC2)c1csc(-c2ccc(F)cc2)n1 [Compound 2, (S)-quinuclidin-3-yl (2-(2-(4-fluorophenyl)thiazol-4-yl)propan-2-yl)carbamate]
[1]; Day 1 (N = 6), GD3, 15 mg/day oral + imiglucerase
  Compound 2 in CSF, concentration 2-4 hours post dose (mean): <LLOQ
[1]; GD3, 15 mg/day oral + imiglucerase
  time at which steady state concentration is reached in plasma and CSF: ≤ 4 Week
[1]; Week 26, believed due to compliance or dosing errors
  Patient 5: lower concentrations of Compound 2 in plasma and CSF: about 50%
[1]; Week 52, believed due to compliance or dosing errors
  Patient 5: concentrations of Compound 2 in plasma and CSF: undetectable
[1]; all patients, GD3, 15 mg/day oral + imiglucerase
  crossing of the blood-brain barrier: effectively cross the blood-brain barrier
[1]; 26-week interim, GD3, 15 mg/day oral + imiglucerase
  AUC: 715 ± 225 ng·h/mL
[1]; 52-week interim, GD3, 15 mg/day oral + imiglucerase
  AUC: 729 ± 205 ng·h/mL
[2]
  connectivity between the default mode (resting) network and the executive function network: increased in Patients 1, 3, 4 and 6, but decreased in Patient 5
Plasma GL-3; 26 weeks, matched comparison to placebo (−1.06 μg/mL, P<0.0001)
  reduction in plasma GL-3: -3.62 µg/mL
Plasma GL-3; 104 weeks (p=0.0351) and 156 weeks (p=0.0081)
  plasma GL-3 reduction compared to agalsidase beta: significantly greater
[3]
  patients showing regression of ILD: 4 out of 5
[4]; 4, 26 and 52 weeks, the four of six patients with measurable GM3 at baseline
  GM3 in CSF: undetectable
[4]; after 52 weeks
  CSF concentrations of ceramide, CHITO or GPNMB: no significant changes
[5]; all Compound 2 dose groups
  day on which maximal sustained GM3 decreases start: 13 days
[5]; all Compound 2 dose groups, low baseline values relative to LLOQ
  Plasma GL-3: decreased with time
[5]; healthy adults, 5, 10, 20 mg once daily 14 days
  plasma GL-1 and GM3 levels: decreased from baseline time- and dose-dependently
[6]; 15 mg/day
  abdominal pain and discomfort: consistently reduces abdominal pain and discomfort
[6]; week 26, patients with gastrointestinal pain at baseline
  patients with decreased severity of abdominal pain: four out of five
[6]; week 26
  patients with improved overall bodily pain scores (SF-36): Seven of nine
  patients with reduced number of days with gastrointestinal pain: five of five
[6]; week 156, patients with gastrointestinal pain at baseline
  patients with decreased severity of abdominal pain: four out of four
[6]; week 156
  patients with improved overall bodily pain scores (SF-36): three of six
  patients with reduced number of days with gastrointestinal pain: three of four
